Source: patent US20210015098A1, “MOLECULES HAVING PESTICIDAL UTILITY, AND INTERMEDIATES, COMPOSITIONS, AND PROCESSES, RELATED THERETO” (DOW AGROSCIENCES LLC, priority 2018, published 2021)

Tests used:
Type in all cases: in vivo
[1] = test system: Yellow Fever Mosquito (Aedes aegypti, AEDSAE); conditions: for YFM (rating): Yellow Fever Mosquito, Table ABC Biological Results
Protocol: Certain molecules disclosed in this document were tested against YFM using procedures described in the following paragraph. In the reporting of the results, the “GPA & YFM Rating Table” was used (See Table Section).
Master plates containing 400 μg of a molecule dissolved in 100 μL of dimethyl sulfoxide (DMSO) (equivalent to a 4000 ppm solution) are used. A master plate of assembled molecules contains 15 μL per well. To this plate, 135 μL of a 90:10 water/acetone mixture is added to each well. A robot (Biomek® NXP Laboratory Automation Workstation) is programmed to dispense 15 μL aspirations from the master plate into an empty 96-well shallow plate (“daughter” plate). There are 6 reps (“daughter” plates) created per master. The created “daughter” plates are then immediately infested with YFM larvae.
The day before plates are to be treated, mosquito eggs are placed in Millipore water containing liver powder to begin hatching (4 g into 400 mL). After the “daughter” plates are created using the robot, they are infested with 220 μL of the liver powder/larval mosquito mixture (about 1 day-old larvae). After plates are infested with mosquito larvae, a non-evaporative lid is used to cover the plate to reduce drying. Plates are held at room temperature for 3 days prior to grading. After 3 days, each well is observed and scored based on mortality. The results are indicated in the table entitled “Table ABC: Biological Results” (See Table Section).

[2] = test system: Cabbage Looper (Trichoplusia ni, TRIPNI); test: Bioassays on Cabbage Looper (CL), 128-well diet tray assay; conditions: for pest or weed control at 50 µg/cm2: Cabbage Looper, Table ABC Biological Results, read-out: CL (rating)
Procedure, shortened: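 Test molecule was dissolved in 90:10 acetone-water, applied to artificial diet at 50 μg/cm^2 and allowed to dry. Second-instar larvae were then added, one to five per well, and trays held at 25° C for five to seven days before mortality was scored and averaged.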

[3] = test system: Green Peach Aphid (Myzus persicae, MYZUPE); test: Bioassays on Green Peach Aphid (GPA), foliar spray on cabbage seedlings; conditions: for GPA (rating): Green Peach Aphid, Table ABC Biological Results
Protocol: Certain molecules disclosed in this document were tested against GPA using procedures described in the following example. In the reporting of the results, the “GPA & YFM Rating Table” was used (See Table Section).
Cabbage seedlings grown in 3-inch pots, with 2-3 small (3-5 cm) true leaves, were used as test substrate. The seedlings were infested with 20-50 GPA (wingless adult and nymph stages) one day prior to chemical application. Four pots with individual seedlings were used for each treatment. Test molecules (2 mg) were dissolved in 2 mL of acetone/methanol (1:1) solvent, forming stock solutions of 1000 ppm test molecule. The stock solutions were diluted 5× with 0.025% Tween 20 in water to obtain the solution at 200 ppm test molecule. A hand-held aspirator-type sprayer was used for spraying a solution to both sides of […] leaves until runoff. Reference plants (solvent check) were sprayed with the diluent only containing 20% by volume of acetone/methanol (1:1) solvent. Treated plants were held in a holding room for three days at approximately 25° C. and ambient relative humidity (RH) prior to grading. Evaluation was conducted by counting the number of live aphids per plant under a microscope. Percent control was measured using Abbott's correction formula (W. S. Abbott, “A Method of Computing the Effectiveness of an Insecticide” J. Econ. Entomol. 18 (1925), pp. 265-267) as follows. Corrected % Control=100*(X−Y)/X where X=No. of live aphids on solvent check plants and Y=No. of live aphids on treated plants. The results are indicated in the table entitled “Table ABC: Biological Results” (See Table Section).

[4] = test system: Beet Armyworm (Spodoptera exigua, LAPHEG); test: Bioassays on Beet Armyworm (BAW), 128-well diet tray assay; conditions: for pest or weed control at 50 µg/cm2: Beet Armyworm, Table ABC Biological Results, read-out: BAW (rating)
Procedure, shortened: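 Larvae at second instar are exposed on dried, compound-treated diet (50 μg/cm^2, delivered in 90:10 acetone-water) in eight replicate wells. After five to seven days at 25° C., 14:10 light-dark, percent mortality in each well is scored and the eight wells averaged.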

SMILES | YFM % Control (or Mortality) rating ([1]; about 1 day-old larvae, 96-well plate, room temperature, 3 days) | mortality at 50 µg/cm2 ([2]; 168 h, 50 μg/cm^2 on artificial diet, second instar larvae, 25° C., five to seven days, read-out: CL % Control (or Mortality) rating) [%] | mortality at 200 ppm ([3]; Myzus persicae, 72 h, 200 ppm foliar spray on cabbage seedlings, three days, Abbott corrected % control, read-out: GPA % Control (or Mortality) rating) [%] | mortality at 50 µg/cm2 ([4]; 168 h, 50 μg/cm^2 on artificial diet, second instar larvae, 25° C., five to seven days, read-out: BAW % Control (or Mortality) rating) [%] | pest or weed control at 50 µg/cm2 [2] [%] | GPA (rating) [3] | pest or weed control at 50 µg/cm2 [4] [%] | YFM (rating) [1]
Nc1c(F)ccc(NC(=O)c2cc(NC(=O)[C@H]3[C@H](c4cccc(C(F)(F)F)c4)C3(Cl)Cl)ccc2Cl)c1F [DP6, N-(3-Amino-2,4-difluorophenyl)-2-chloro-5-((1R,3R)-2,2-dichloro-3-(3-(trifluoromethyl)phenyl)cyclopropane-1-carboxamido)benzamide] | B (More than 0-Less than 80) | 50 to 100 | 80 to 100 | 50 to 100 | – | – | – | –
C=CCSCC(=O)Nc1c(F)ccc(NC(=O)c2cc(NC(=O)[C@H]3[C@H](c4ccc(F)c(C(F)(F)F)c4)C3(Cl)Cl)ccc2Cl)c1F [F3, N-(3-(2-(Allylthio)acetamido)-2,4-difluorophenyl)-2-chloro-5-((1R,3R)-2,2-dichloro-3-(4-fluoro-3-(trifluoromethyl)phenyl)cyclopropane-1-carboxamido)benzamide] | – | – | – | – | 50 to 100 | B (More than 0-Less than 80) | 50 to 100 | –
CSCCC(=O)Nc1c(F)ccc(NC(=O)c2cc(NC(=O)[C@H]3[C@H](c4ccc(F)c(C(F)(F)F)c4)C3(Cl)Cl)ccc2Cl)c1F [F24, 2-Chloro-5-((1R,3R)-2,2-dichloro-3-(4-fluoro-3-(trifluoromethyl)phenyl)cyclopropane-1-carboxamido)-N-(2,4-difluoro-3-(3-(methylthio)propanamido)phenyl)benzamide] | – | – | – | – | 50 to 100 | – | 50 to 100 | A (80-100)
CSCCCC(=O)Nc1c(F)ccc(NC(=O)c2cc(NC(=O)[C@H]3[C@H](c4ccc(F)c(C(F)(F)F)c4)C3(Cl)Cl)ccc2Cl)c1F [F25, 2-Chloro-5-((1R,3R)-2,2-dichloro-3-(4-fluoro-3-(trifluoromethyl)phenyl)cyclopropane-1-carboxamido)-N-(2,4-difluoro-3-(4-(methylthio)butanamido)phenyl)benzamide] | – | – | – | – | 50 to 100 | – | 50 to 100 | A (80-100)
O=C(C[S+]([O-])CC(F)(F)F)Nc1c(F)ccc(NC(=O)c2cc(NC(=O)[C@H]3[C@H](c4ccc(F)c(C(F)(F)F)c4)C3(Cl)Cl)ccc2Cl)c1F (stereo partly drawn) [F32, 2-Chloro-5-((1R,3R)-2,2-dichloro-3-(4-fluoro-3-(trifluoromethyl)phenyl)cyclopropane-1-carboxamido)-N-(2,4-difluoro-3-(2-((2,2,2-trifluoroethyl)sulfinyl)acetamido)phenyl)benzamide] | – | – | – | – | 50 to 100 | – | 50 to 100 | A (80-100)
CC[S+]([O-])C(C)C(=O)Nc1c(F)ccc(NC(=O)c2cc(NC(=O)[C@H]3[C@H](c4ccc(F)c(C(F)(F)F)c4)C3(Cl)Cl)ccc2Cl)c1F (stereo partly drawn) [F34, 2-chloro-5-((R,3R)-2,2-dichloro-3-(4-fluoro-3-(trifluoromethyl)phenyl)cyclopropane-1-carboxamido)-N-(3-(2-(ethylsulfinyl)propanamido)-2,4-difluorophenyl)benzamide] | – | – | – | – | 50 to 100 | B (More than 0-Less than 80) | 50 to 100 | A (80-100)
O=C(CCS(=O)(=O)C(F)(F)F)Nc1c(F)ccc(NC(=O)c2cc(NC(=O)[C@H]3[C@H](c4ccc(F)c(C(F)(F)F)c4)C3(Cl)Cl)ccc2Cl)c1F [F46, 2-Chloro-5-((1R,3R)-2,2-dichloro-3-(4-fluoro-3-(trifluoromethyl)phenyl)cyclopropane-1-carboxamido)-N-(2,4-difluoro-3-(3-((trifluoromethyl)sulfonyl)propanamido)phenyl)benzamide] | – | – | – | – | 50 to 100 | – | 50 to 100 | A (80-100)
